In patent US20140249198A1, “MELATONIN AND ITS USE IN PREVENTING POSTOPERATIVE COMPLICATIONS” (NUTRI-FIT GMBH & CO., KG, priority 2004, published 2014):

Columns and labels:
[1] = test system: female Sprague Dawley rats; assay: Partial liver resection with ischemia/reperfusion in rats, preoperative melatonin by gavage; format: in vivo, rat
Experimental: Ischemia and subsequent reperfusion of organs and tissues induced by clamping of blood vessels to prevent excessive bleeding, are unavoidable during surgical procedures. Such a standard ischemia/reperfusion situation can be simulated by a partial hepatectomy in a clinically relevant rat surgical model.
In this animal model, female Sprague Dawley rats (200-220 g) undergo a median laparotomy followed by clamping of the right lateral liver lobe for 20 min resulting in a hypoxia in about 30% of the entire organ. After reperfusion of the ischemic tissue, the remaining 70% of the liver, the non-ischemic middle and left lateral liver lobes are surgically removed and the surgical incision is closed. During a follow up period of maximal 7 days the effects of ischemia/reperfusion are observed with respect to liver damage and survival.
In this rat model the operative trauma of performing a laparotomy introduces a first hypoxia in the liver. The subsequent partial clamping of the blood supply to the liver and the following partial resection of a large part of liver tissue results in additional ischemia. During the subsequent reperfusion the actual free radical-induced damage to the liver tissue occurs. This actual damage to many cells of the liver tissue in regions of the remaining parts of the organ is now determined by the release of enzymes such as liver transaminases, alkaline phosphatase after various time points following partial liver resection.
After reperfusion of the ischemic tissue, the remaining 70% of the liver, the non-ischemic middle and the left lateral liver lobes were surgically removed and the surgical incision was closed.
In this rat model the operative trauma of performing a laparotomy introduced a first hypoxia in the liver. […] During the subsequent reperfusion the actual free radical-induced damage to the liver tissue occurred. This actual damage to many cells of the liver tissue in regions of the remaining parts of the organ was now determined by the release of enzymes such as liver transaminases (AST, ALT) and alkaline phosphatase after various time points following partial liver resection.
Melatonin was administered in various concentrations (0, 10, 20, 50 mg/kg body weight) by gavage of a control (5% ethanol in water; 0 mg/kg body weight melatonin) or a melatonin-containing aqueous solution (5% ethanol) into the stomach of the 10 rats of each of the four groups 2 hours before the surgery.

mice = conditions: short term administration after surgery-induced hemorrhagic shock, mice subjected to septic challenge; cited from earlier work
[2] = test system: rat middle cerebral artery occlusion model; conditions: pretreatment with melatonin; cited from earlier work
neutrophils = conditions: in vitro; apoptosis delayed following hepatectomy; cited from earlier work
neonates = conditions: treatment started within 3 hours after the end of surgery; cited from earlier work
[3] = 10, 20, 50 mg/kg body weight by gavage 2 hours before surgery, 3 and 8 h after partial liver resection, vs control, FIG. 1

Q: Which “survival after 7 days” value ([1]; 10 mg/kg body weight preoperatively, vs control, FIG. 3) does the source give for `COc1ccc2[nH]cc(CCNC(C)=O)c2c1` [Melatonin, N-acetyl-5-methoxytryptamin] here?
A: Its value is “significant increase in survival”.

Q: What about the “alkaline phosphatase (ALP) activity (indicates regeneration of the liver)” value ([1]; 50 mg/kg body weight preoperatively, 3, 8, 48 h and 1 week after partial liver resection, vs control, FIG. 2) of the same molecule?
A: Its value is “increased ALP activity after 48 h reaching statistical significance after 1 week”.

Q: What about the “level of alanine transferase (ALT)” value [1, 3] of the same molecule?
A: The value was “amelioration of the massive increase”.

Q: What about the “level of aspartate transferase (AST)” value [1, 3] of the same molecule?
A: The value was “amelioration of the massive increase”.

Q: What about the “hypoxia of liver tissue” value ([1]; preoperative application, partial liver resection in rats) of the same molecule?
A: The value was “reduces the increase in hypoxia of liver tissue”.

Q: What about the “extent of necrosis following ischemia/reperfusion of the liver” value ([1]; preoperative application, rats) of the same molecule?
A: Its value is “reduces the extent of necrosis”.

Q: And the survival (mice)?
A: Its survival is “significantly improved survival”.

Q: And the “volume of cerebral infarction” value [2]?
A: Its value is “reduce the volume of cerebral infarction”.

Q: And the “apoptosis activity in neutrophils” value (neutrophils)?
A: Its value is “enhances apoptosis activity in neutrophils”.

Q: What about the “clinical parameters of inflammation” value (neonates) of the same molecule?
A: The value was “progressive reduction of clinical parameters of inflammation”.
